Data: patent US20020122768A1, “Stable radiopharmaceutical compositions and methods for preparation thereof” (priority 2000, published 2002)

Assays:
[1] = Solution stability of ^90Y-A at −78° C., RCP by radio-HPLC; assay type: physicochemical; conditions: for RCP (%) change: t = 0 h to 72 h
Method: The integrity of a radiopharmaceutical is measured by the radiochemical purity (RCP) of the radiolabeled compound using ITLC or more preferably HPLC. The advantage of using HPLC is that radio-impurities caused by radiolytic degradation can be separated from the radiopharmaceutical under optimized chromatographic conditions. […] The radiopharmaceutical compositions of this invention are effective in maintaining the long-term stability of samples that have been frozen, thawed, and re-tested periodically for 7 days.
The initial RCP of a radiopharmaceutical is largely dependent on radiolabeling conditions such as pH, heating temperature and time. Once a radiopharmaceutical is prepared in high yield, the stability of the radiopharmaceutical composition is measured by the` RCP change of the radiopharmaceutical over a certain period of time. For comparison purposes, sodium gentisate or sodium ascorbate was often used as the reference since they have been used in various radiopharmaceutical formulations.
Analytical Methods. HPLC method 1 used a HP-1100 HPLC system with a UV/visible detector (λ=220 nm), an IN-US radio-detector, and a Zorbax C18 column (4.6 mm×250 mm, 80 Å pore size). The flow rate was 1 mL/min with the mobile phase being isocratic from 0 to 18 min using 87% solvent A (0.025 M ammonium acetate buffer, pH 6.8) and 13% solvent B (acetonitrile), followed by an isocratic wash using 40% of solvent A and 60% solvent B from 19 to 25 min.
The ITLC method used Gelman Sciences silica-gel ITLC paper strips and 1:1 mixture of acetone and saline as eluant. By this method, the radiolabeled compounds migrate to the solvent front while [^90Y]/^177Lu]colloid and [^90Y]/^177Lu]acetate remain at the origin.
^90Y-A was prepared using the procedure described in example 4. The resulting solution was the kept in a dry-ice box (−78° C.) for 3 days. Samples were analyzed at t=0, 24, 48, and 72 h.
To a lead-shielded clean 5 mL vial containing 100 μg of COMPOUND A and 2 mg of 3,4,5-trihydroxybenzoic acid (3,4,5-THBA) dissolved in 0.5 mL of 0.5 M ammonium acetate buffer (pH=8.0) was added 20 μL Of ^90YCl3 solution (˜20 mCi) in 0.05 N HCl. The reaction mixture was heated at 100° C. for 5 min. After cooling to room temperature, 0.5 mL of 3,4,5-THBA solution (20 mg/mL) in 0.5 M ammonium acetate buffer (pH=8.0) was added to the solution above. A sample of the resulting mixture was then diluted 20-fold with GA solution (10 mg/mL, pH=7.4), and analyzed by HPLC (Method 1, injection volume=1 μL) and ITLC. […] The resulting mixture was kept at −78° C. for 3 days. Samples were analyzed at t=0, 1, 2, and 3 days.
Synthesis of ^90Y-A was carried out according to the procedure described in example 12. After cooling to room temperature, 0.5 mL of 2,3,4-THBA solution (20 mg/mL) in 0.5 M ammonium acetate buffer (pH=8.0) was added to the solution containing ^90Y-A. The resulting mixture was kept at -78 °C for 3 days. Samples were analyzed at t=0, 1, 2, and 3 days.
Synthesis of ^90Y-A was carried out according to the procedure described in example 12. After cooling to room temperature, 0.5 mL of DSA solution (20 mg/mL) in 0.5 M ammonium acetate buffer (pH=8.0) was added to the solution containing ^90Y-A. The resulting mixture was kept at −78° C. for 3 days. Samples were analyzed at t=0, 1, 2, and 3 days.
Synthesis of ^90Y-A was carried out according to the procedure described in example 12. After cooling to room temperature, 0.5 mL of HABA solution (20 mg/mL) in 0.5 M ammonium acetate buffer (pH=8.0) was added to the solution containing ^90Y-A. The resulting mixture was kept at −78° C. for 3 days. Samples were analyzed at t=0, 1, 2, and 3 days. […]
To a lead-shielded clean 30 mL vial containing 1000 μg of COMPOUND A and 100 mg of sodium gentisate (GA) dissolved in 5 mL of 0.5 M ammonium acetate buffer (pH=7.5) was added ˜250 μL of ^90YCl3 solution (˜200 mCi) in 0.05 N HCl. The reaction mixture was heated at 100° C. for 15 min. […]

[2] = Solution stability of ^177Lu-C at −78° C., RCP by radio-HPLC; assay type: physicochemical; conditions: ^177Lu-C prepared using 2 mg GA, degassed, second stabilizer (20 mg AA, 20 mg DSA, 10 mg 2,3,4-THBA, 10 mg 3,4,5-THBA) added post-labeling
[3] = ^90Y-A prepared using 2 mg 3,4,5-THBA, second stabilizer (0.5 mL of 20 mg/mL) added after radiolabeling, −78° C.
[4] = ^90Y-A prepared using 2 mg 3,4,5-THBA, second stabilizer added after radiolabeling, −78° C.
[5] = ^90Y-A, 10 mg stabilizer, dry-ice box (−78° C.)
[6] = ^90Y-A, 10 mg stabilizer, −78° C.

Compound | RCP (%) t = 0 h [1, 3] [%] | RCP (%) t = 24 h [1, 3] [%] | RCP (%) t = 48 h [1, 3] [%] | RCP (%) t = 72 h [1, 3] [%] | RCP (%) change [1, 4] [%] | RCP (%) t = 1 day [2] [%] | RCP (%) t = 0 h [1, 5] [%] | RCP (%) t = 24 h [1, 5] [%] | RCP (%) t = 48 h [1, 5] [%] | RCP (%) t = 72 h [1, 5] [%] | RCP (%) change [1, 6] [%]
O=C(O)c1ccc(O)c(O)c1O [2,3,4-THBA, 2,3,4-trihydroxybenzoic acid] | 98.1 | 99.2 | 99.0 | 98.2 | 0 | 96.6 | – | – | – | – | –
2,4-disulfonatobenzeneamine [DSA] | 98.5 | 98.9 | 96.7 | 96.7 | 1.8 | 97.4 | 94.4 | 94.0 | 94.1 | 94.2 | 0.2
O=C(O)c1cc(O)c(O)c(O)c1 [3,4,5-THBA, 3,4,5-trihydroxybenzoic acid] | 97.5 | 98.4 | 98.3 | 96.6 | 0.9 | 97.9 | 93.3 | 92.4 | 93.5 | 93.5 | 0.2
